Measurements as given in patent US8518956B2, “1-(1-(2-ethoxyethyl)-3-ethyl-7-(4-methylpyridin-2-ylamino)-1H-pyrazolo[4,3-d]pyrimidin-5-yl) piperidine-4-carboxylic acid and salts thereof” (priority 2005, dated 2013).

What was measured:
PDE11 enzyme = biological target: T1, PDE11 enzyme (Homo sapiens, UniProt Q9HCR9, DUP921-921); experiment: Method 3: Human Recombinant PDE11 Enzyme Inhibition Scintillation Proximity Assay (SPA); format: biochemical; conditions: Table F, WO2004096810 examples; read-out: METHOD 3: PDE11 IC50
T1 construct: FLAG (N); made in house; host or cells: Sf9 insect cells (baculovirus, pFastBac)
T1 sequence (Q9HCR9 with tags, fused parts or gaps DUP921-921 limits assumed): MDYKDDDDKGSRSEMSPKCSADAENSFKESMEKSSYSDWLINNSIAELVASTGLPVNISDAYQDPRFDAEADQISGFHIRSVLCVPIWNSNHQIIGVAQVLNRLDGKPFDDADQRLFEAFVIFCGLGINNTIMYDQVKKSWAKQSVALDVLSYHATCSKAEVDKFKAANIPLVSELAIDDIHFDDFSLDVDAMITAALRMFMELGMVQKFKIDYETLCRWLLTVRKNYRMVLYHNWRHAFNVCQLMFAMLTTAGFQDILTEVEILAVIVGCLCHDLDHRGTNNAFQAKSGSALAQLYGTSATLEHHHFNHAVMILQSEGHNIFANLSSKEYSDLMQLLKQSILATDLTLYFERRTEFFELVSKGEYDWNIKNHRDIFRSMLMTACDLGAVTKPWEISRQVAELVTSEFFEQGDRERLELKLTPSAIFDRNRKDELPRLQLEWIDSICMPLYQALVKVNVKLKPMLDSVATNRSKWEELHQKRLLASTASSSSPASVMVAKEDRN
Experimental: Method 3: Human Recombinant PDE11 Enzyme Inhibition Scintillation Proximity Assay (SPA)
PDE11 Expression and Purification:
Incubate at 27° C. with 220 rpm shaking for 48 hours. Harvest the infected cells by pelleting at 2000 rpm for 10 minutes at 4° C. Store the infected cell pellet at −80° C. until ready for purification. Resuspend the thawed cell pellets to 1×10^7 cells/ml (=20 ml buffer consisting of 20 mM Hepes (pH7.2), 1 mM EDTA, 20 mM sucrose, 150 mM NaCl and protease inhibitor tablets). Mix thoroughly and allow to stand on ice for 10 minutes. Sonicate for 5×5 seconds, on ice. Spin the mixture at 12,000 rpm for 10 minutes at 4° C. in SS34. Store the insoluble pellet at −80° C., and proceed to the purification of the soluble material. • (b) Purification: Prepare the column (1.0 cm diameter, Kontes) by rinsing the empty column twice with TBS. Then mix beads (Anti-FLAG M2 Agarose, Sigma) with TBS and add to the column—allow the beads to settle. Wash the column with 3 column volumes of 0.1M glycine (pH3.5). […] Apply the extract to the column and allow the extract to enter by gravity flow. Reapply the flow-through. Wash the column with 15 column volumes of TBS. Elute the protein with 5×1 ml aliquots of FLAG peptide (Sigma) (i.e., 100 ug/ml in TBS). Elute the remaining protein with 1 ml 0.1M glycine, and immediately add 25 ul 1M Tris pH8 to neutralize. Method 3A: Alternative Human Recombinant PDE11 Enzyme Inhibition Scintillation Proximity Assay (SPA)

[1] = Method 11: Single Dose Pharmacokinetics and Oral Bioavailability in Male Sprague-Dawley Rat; format: in vivo; conditions: mean; for AUC(0-inf) / clearance / half-life / Vd / Cmax / Tmax: plasma, 2 mg/kg; for Vd: read-out: Vdss; for F: po 2 mg/kg vs iv 2 mg/kg
Experimental: Repeat testing is recommended in order to establish a valid assay test result. P. Pharmacokinetic/Pharmacodynamic Study Method 11: Single Dose Pharmacokinetics and Oral Bioavailability in Male Sprague-Dawley Rat Following Intravenous and Oral Administration
An in vivo model can be used to evaluate the single dose pharmacokinetic properties and absolute oral bioavailability of a test compound. As described more specifically below, a test compound is administered to Sprague-Dawley (SD) rats either intravenously or orally in a crossover study design and the resulting pharmacokinetic properties and oral bioavailability are measured.
Male rats are administered a 2.0 mg/kg dose orally (n=2) by gavage as a suspension (0.5% methylcellulose/0.1% Tween 80 in distilled water). After a 72 hour wash-out periond, the same rats were administered 2.0 mg/kg dose bolus intravenously (n=2) as a solution (70% PEG 400/20% 0.05 M Citrate Buffer pH 3/10% Ethanol). Serial blood samples (for plasma) are collected from each rat over a 24 hour post dose for each route. […] Pharmacokinetic parameters of a test compound are determined from the plasma concentration-time data using non-compartmental methods. • LC/MS/MS: 1) Column: Hyperso; AQUASIL C-18 2.1×20 mm, 3.0 μm; 2) Mobile phase: Aqueous Water with 0.1% Formic Acid, Orgainic: Acetonitrile; Ionization: +ESI (API 4000). MRM: m/z 494.4→m/z 394.0 (Example 261 in WO2004096810), m/z 509.44→m/z 409.80 (Example 263 in WO2004096810), m/z 495.33→m/z 395.20 (Example 262 in WO2004096810). The detection limits are 0.12 ng/mL (Example 261 in WO2004096810), 1.3 ng/mL (Example 263 in WO2004096810) and 0.11 ng/mL (Example 262 in WO2004096810).
Watson (Version 6.4.0.04) is used to calculate mean test compound concentrations, corresponding standard deviations (SD), and percent coefficient of variation (% CV), and to estimate pharmacokinetic parameters (derived by noncompartmental methods) and associated statistics (mean, SD & CV %) if applicable. (Since n=2, no SD or CV calculated ?). Concentrations below the limit of quantitation (BLQ) are reported as zero (0) and are used in the evaluation of mean concentrations and the estimation of AUC. The peak plasma concentration (Cmax) and the time to reach peak concentration (tmax) are recorded directly from individual plasma concentration-time profiles. The terminal log-linear phase of the plasma concentration-time curve is identified by linear regression of data points. The terminal half-life (t1/2) is calculated as ln(2) divided by absolute value of the slope of the terminal log-linear phase. The area under the plasma concentration-time curve from time zero to time of the last quantifiable concentration (t) [AUC(0-t)] is determined using the linear trapezoidal method. The area under the plasma concentration-time curve from time zero to infinity [AUC(0-∞)] is determined as AUC(0-t) plus the extrapolated area. The extrapolated area is determined by dividing the last observed plasma concentration by the slope of the terminal log-linear phase. Systemic plasma clearance (CL) is calculated as dose/AUC(0-∞) while the volume of distribution at steady state (Vdss) is calculated as CL×MRT, where MRT (mean residence time) is defined as AUMC(0-∞)/AUC(0-∞). The absolute PO bioavailability (F) is calculated as a ratio of the dose-normalized AUC(0-∞) of individual animal after PO administration to the dose-normalized AUC(0-∞) of individual animal after IV administration given the crossover study design.

## Cc1ccnc(Nc2nc(N3CCC(C(=O)O)CC3)nc3c(C)nn(CCOCC(F)(F)F)c23)c1 [WO2004096810 Example 261]
PDE11 enzyme
  IC50: 426 nM
[1]; iv
  AUC(0-inf): 19000 ng·h/mL
  clearance: 1.75 mL/min/kg
  half-life: 6.4 h
  Vd: 0.564 L/kg
[1]; po
  AUC(0-inf): 20000 ng·h/mL
  Cmax: 2350 ng/mL
  Tmax: 0.67 h
  half-life: 6.7 h
[1]
  F: 105%

## Cc1cc(Nc2nc(N3CCC(C(=O)O)CC3)nc3c(C)nn(CCOCC(F)(F)F)c23)ncn1 [WO2004096810 Example 262]
PDE11 enzyme
  IC50: 471 nM
[1]; iv
  AUC(0-inf): 440 ng·h/mL
  clearance: 76.3 mL/min/kg
  half-life: 5.5 h
  Vd: 6.11 L/kg
[1]; po
  AUC(0-inf): 280 ng·h/mL
  Cmax: 87.1 ng/mL
  Tmax: 0.67 h
  half-life: 3.4 h
[1]
  F: 63.9%

## CCc1nn(CCOCC(F)(F)F)c2c(Nc3cc(C)ncn3)nc(N3CCC(C(=O)O)CC3)nc12 [WO2004096810 Example 263]
PDE11 enzyme
  IC50: 316 nM
[1]; iv
  AUC(0-inf): 555 ng·h/mL
  clearance: 60.1 mL/min/kg
  half-life: 4.5 h
  Vd: 5.07 L/kg
[1]; po
  AUC(0-inf): 329 ng·h/mL
  Cmax: 102 ng/mL
  Tmax: 0.33 h
  half-life: 3.8 h
[1]
  F: 60.0%
